Experiment: Food intake test in food-deprived rats (anorectic activity)
Format: in vivo, Male Sprague-Dawley derived rats
Conditions: rat, 32.0 mg/kg i.g., 24 h food-deprived, food given 30 min after dosing; for Food Intake, % of control, 1 Hr.: 1 hour intake; for Food Intake, % of control, 2 Hr.: 2 hour intake; for Food Intake, % of control, 6 Hr.: 6 hour intake
Procedure: Male Sprague-Dawley derived rats, Charles River Breeders (Portage, MI), weighing between 200-400 grams at the time of testing, were employed in the food intake studies and water intake studies. The rats were housed individually and kept on a 12 hour light-dark-light cycle. The room temperature ranged between 23°-25° C. The rats employed in food intake testing were food deprived on the day preceding testing and were divided into experimental groups that were matched on the basis of average daily food intake and body weight. At approximately 24 hour post-deprivation, the rats were administered a test sample containing as the active ingredient a compound of the present invention. All test samples employed herein were prepared and homogenized in a vehicle of normal saline (to which a few drops of PG/Tween 80 was added). The test samples were administered at an injection volume of 2 ml/kg, unless otherwise stated. Thirty minutes following administration of the test samples, pre-weighed food jars containing ground meal were placed in the rats' cages. (Prior to testing the rats were given ground meal for a minimum of 3 days to familiarize the rats with this food.) After 1, 2 and 6 hours of food access, the jars were removed, weighed and returned to the rats' cages providing a 1, 2 and 6 hours intake measurement. […] The results obtained are represented in Table I as a percent of control values. A student t test was used for making statistical comparisons, and the p-values are based upon two-tailed comparisons. The compound employed as the active ingredient on the test sample is indicated by the example number which describes its preparation.

| Compound | Food Intake, % of control, 1 Hr. | Food Intake, % of control, 2 Hr. | Food Intake, % of control, 6 Hr. |
| --- | --- | --- | --- |
| O=c1c(CO)cnc2c3ccccc3ccn12 [Example 1, 3-(hydroxymethyl)-4H-pyrimido [2,1-a]isoquinolin-4-one] | 61.8 % of control | 77.4 % of control | 90.4 % of control |
| CC(=O)OCc1cnc2c3ccccc3ccn2c1=O [Example 2, 3-(hydroxymethyl)-4H-pyrimido[2,1-a]isoquinolin-4-one acetate] | 51.4 % of control | 67.1 % of control | 89.8 % of control |
| Cl.Cl.NCc1cnc2c3ccccc3ccn2c1=O [Example 3, 3-(aminomethyl)-4H-pyrimido[2,1-a]isoquinolin-4-one, dihydrochloride] | 51.3 % of control | 71.4 % of control | 92.3 % of control |
| CCN(CC)CCOCc1cnc2c3ccccc3ccn2c1=O.Cl.Cl [Example 4, 3-[[2-(diethylamino)ethoxy]methyl]-4H-pyrimido[2,1-a]isoquinolin-4-one dihydrochloride] | 70.8 % of control | 80.8 % of control | 90.9 % of control |
| CN(C)CCNC(=O)c1cnc2c3ccccc3ccn2c1=O [Example 5] | 82.4 % of control | 87.5 % of control | 88.3 % of control |

From patent US4661592A, “4H-pyrimido[2,1-a]isoquinolin-4-one derivatives” (G. D. Searle & Co., priority 1984, dated 1987)
